The values that follow come from US20220098646A1, “DETECTION METHOD OF PAN-RESISTANT K. PNEUMONIAE, SCREENING METHOD OF ANTIMICROBIAL AGENTS, AND RECORDING MEDIA AND DATABASE” (TEIKYO UNIVERSITY, priority 2019, published 2022).

Experiment [1] concerns K. pneumoniae TK1401. Briefly: Antimicrobial susceptibility testing, MicroScan WalkAway apparatus. In kind it is cell-based, Klebsiella pneumoniae. The following applies: for MIC: Klebsiella pneumoniae, read-out: Minimum inhibitory concentration; for MIC / Minimum inhibitory concentration: K. pneumoniae isolate TK1401, MicroScan WalkAway, CLSI M100-S24 breakpoints. As to the method: (§1) Testing was performed using a MicroScan WalkAway apparatus (Beckman Coulter, Brea, Calif., USA). The minimal inhibitory concentration (MIC) of colistin was confirmed using the Etest (bioMérieux, Marcy l'Etoile, France) and the broth microdilution method. Antimicrobial susceptibility was defined according to breakpoints listed in the Clinical and Laboratory Standards Institute (CLSI) guidelines (M100-S24).

In experiment [2] the test system is K. pneumoniae TK1401. Put plainly: Antimicrobial susceptibility testing, broth microdilution method. In kind it is cell-based, Klebsiella pneumoniae. The following applies: for MIC: Klebsiella pneumoniae. As to the method:
as §1
In general terms: Broth dilution looks for growth in wells or tubes with falling amounts of substance.

[3] abbreviates: K. pneumoniae isolate TK1401, broth microdilution method (footnote b), read-out: Minimum inhibitory concentration.
Setting [4] is: K. pneumoniae isolate TK1401, broth microdilution method (footnote b).

Converted amounts (≈) assume the structure as drawn.

For the compound `NCC[C@H](O)C(=O)N[C@@H]1C[C@H](N)[C@@H](O[C@H]2O[C@H](CN)[C@@H](O)[C@H](O)[C@H]2O)[C@H](O)[C@H]1O[C@H]1O[C@H](CO)[C@@H](O)[C@H](N)[C@H]1O` [Amikacin], the MIC in the experiment on K. pneumoniae TK1401 [1] is greater than 32 µg/mL.

With `CC1(C)S[C@@H]2[C@H](NC(=O)[C@H](N)c3ccc(O)cc3)C(=O)N2[C@H]1C(=O)O` [Amoxicillin], the MIC in the experiment with K. pneumoniae TK1401 [1] is greater than 16 µg/mL.

As to `CC1(C)S[C@@H]2[C@H](NC(=O)[C@H](N)c3ccccc3)C(=O)N2[C@H]1C(=O)O` [Ampicillin], the MIC with K. pneumoniae TK1401 [1] was greater than 16 µg/mL.

As for `NCC[C@H](O)C(=O)N[C@@H]1C[C@H](N)[C@@H](O[C@H]2O[C@H](CN)CC[C@H]2N)[C@H](O)[C@H]1O[C@H]1O[C@H](CO)[C@@H](O)[C@H](N)[C@H]1O` [Arbekacin], the MIC with K. pneumoniae TK1401 [2] (setting [3]) is greater than 256 µg/mL.

In the case of `N[C@@H](C(=O)N[C@@H]1C(=O)N2C(C(=O)O)=C(Cl)CS[C@H]12)c1ccccc1` [Cefaclor], in the experiment on K. pneumoniae TK1401 [1], the MIC is greater than 16 µg/mL.

In the case of `Cc1nnc(SCC2=C(C(=O)O)N3C(=O)[C@@H](NC(=O)Cn4cnnn4)[C@H]3SC2)s1` [Cefazolin], the MIC with K. pneumoniae TK1401 [1] is greater than 16 µg/mL.

As for `C=CC1=C(C(=O)O)N2C(=O)[C@@H](NC(=O)/C(=N\O)c3csc(N)n3)[C@H]2SC1` [Cefdinir], the MIC in the experiment with K. pneumoniae TK1401 [1] is greater than 2 µg/mL.

On to `CO/N=C(\C(=O)N[C@@H]1C(=O)N2C(C(=O)[O-])=C(C[N+]3(C)CCCC3)CS[C@H]12)c1csc(N)n1` [Cefepime], for which the MIC in the experiment on K. pneumoniae TK1401 [1] was greater than 2 µg/mL.

Consider `CO[C@@]1(NC(=O)CSCC#N)C(=O)N2C(C(=O)O)=C(CSc3nnnn3C)CS[C@@H]21` [Cefmerazole], for which the Minimum inhibitory concentration with K. pneumoniae TK1401 [1] is greater than 32 µg/mL.

`CO/N=C(\C(=O)N[C@@H]1C(=O)N2C(C(=O)O)=C(COC(C)=O)CS[C@H]12)c1csc(N)n1` [Cefotaxim]: the Minimum inhibitory concentration in the experiment on K. pneumoniae TK1401 [1] is greater than 2 µg/mL.

For the compound `CN(C)CCn1nnnc1SCC1=C(C(=O)O)N2C(=O)[C@@H](NC(=O)Cc3csc(N)n3)[C@H]2SC1` [Cefotiam], the MIC with K. pneumoniae TK1401 [1] is greater than 16 µg/mL.

For `CO/N=C(\C(=O)N[C@@H]1C(=O)N2C(C(=O)[O-])=C(C[n+]3ccn4ncccc43)CS[C@H]12)c1nsc(N)n1` [Cefozopran], the MIC in the experiment on K. pneumoniae TK1401 [1] was greater than 16 µg/mL.

Consider `COCC1=C(C(=O)O)N2C(=O)[C@@H](NC(=O)/C(=N\OC)c3csc(N)n3)[C@H]2SC1` [Cefpodoxime], for which the MIC with K. pneumoniae TK1401 [1] is greater than 4 µg/mL.

`CC(C)(O/N=C(\C(=O)N[C@@H]1C(=O)N2C(C(=O)[O-])=C(C[n+]3ccccc3)CS[C@H]12)c1csc(N)n1)C(=O)O` [Ceftazidime]: the MIC in the experiment on K. pneumoniae TK1401 [1] is greater than 16 µg/mL.

Regarding `CO/N=C(\C(=O)N[C@@H]1C(=O)N2C(C(=O)O)=C(CSc3nc(=O)c(=O)[nH]n3C)CS[C@H]12)c1csc(N)n1` [Ceftriaxone], the MIC in the experiment with K. pneumoniae TK1401 [1] was greater than 16 µg/mL.

Take `O=C(N[C@H](CO)[C@H](O)c1ccc([N+](=O)[O-])cc1)C(Cl)Cl` [Chloramphenicol]: the MIC with K. pneumoniae TK1401 [2] (setting [3]) is greater than 256 µg/mL.

Take `C[C@@H](O)[C@H]1C(=O)N2C(C(=O)O)=C(S[C@@H]3CN[C@H](CNS(N)(=O)=O)C3)[C@H](C)[C@H]12` [Doripenem]: in the experiment on K. pneumoniae TK1401 [1], the MIC is greater than 8 µg/mL.

For `CO[C@@]1(NC(=O)CSC(F)F)C(=O)N2C(C(=O)O)=C(CSc3nnnn3CCO)CO[C@@H]21` [Flomoxef], the MIC with K. pneumoniae TK1401 [1] was greater than 32 µg/mL.

Regarding `C[C@@H]1O[C@@H]1P(=O)(O)O` [Fosfomycin], in the experiment on K. pneumoniae TK1401 [1] (breakpoints of CLSI guidelines M100-S24), the “Antimicrobial susceptibility of the isolate (in words)” value is given as “not susceptible”. Also, in the experiment on K. pneumoniae TK1401 [2] (setting [3]), the MIC was greater than 256 µg/mL.

`C[C@@H](O)[C@H]1C(=O)N2C(C(=O)O)=C(SCCN=CN)C[C@H]12` [Imipenem]: in the experiment with K. pneumoniae TK1401 [1], the MIC was greater than 8 µg/mL.

As for `C[C@H]1COc2c(N3CCN(C)CC3)c(F)cc3c(=O)c(C(=O)O)cn1c23` [Levofloxacin], in the experiment with K. pneumoniae TK1401 [1], the MIC is greater than 4 µg/mL.

In the case of `C[C@@H](O)[C@H]1C(=O)N2C(C(=O)O)=C(S[C@@H]3CN[C@H](C(=O)N(C)C)C3)[C@H](C)[C@H]12` [Meropenem], the MIC in the experiment on K. pneumoniae TK1401 [1] was greater than 8 µg/mL.

On to `CN(C)c1ccc(O)c2c1C[C@H]1C[C@H]3[C@H](N(C)C)C(O)=C(C(N)=O)C(=O)[C@@]3(O)C(O)=C1C2=O` [Minocycline], for which the MIC in the experiment on K. pneumoniae TK1401 [2] (setting [3]) amounted to 256 µg/mL (≈ 560 µM).

On to `CCN1CCN(C(=O)N[C@@H](C(=O)N[C@@H]2C(=O)N3[C@@H]2SC(C)(C)[C@@H]3C(=O)O)c2ccccc2)C(=O)C1=O` [Piperacillin], for which the MIC in the experiment on K. pneumoniae TK1401 [1] is greater than 64 µg/mL.

`CN(C)c1cc(NC(=O)CNC(C)(C)C)c(O)c2c1C[C@H]1C[C@H]3[C@H](N(C)C)C(O)=C(C(N)=O)C(=O)[C@@]3(O)C(O)=C1C2=O` [Tigecycline]: the MIC in the experiment on K. pneumoniae TK1401 [2] (TK1401, read-out: Minimum inhibitory concentration) was determined as 16 µg/mL (≈ 27.3 µM).

Take `NC[C@H]1O[C@H](O[C@H]2[C@H](O)[C@@H](O[C@H]3O[C@H](CO)[C@@H](O)[C@H](N)[C@H]3O)[C@H](N)C[C@@H]2N)[C@H](N)C[C@@H]1O` [Tobramycin]: the MIC in the experiment with K. pneumoniae TK1401 [1] is greater than 8 µg/mL.

Compound Colistin came in with a Minimum inhibitory concentration with K. pneumoniae TK1401 [2] (setting [4]) of 64 µg/mL.

In the experiment with K. pneumoniae TK1401 [1], Gentamicin came in with a Minimum inhibitory concentration greater than 8 µg/mL.

In the experiment on K. pneumoniae TK1401 [2] (setting [4]), Polymyxin B had a Minimum inhibitory concentration of 64 µg/mL.
